System: subjects with cellulite
Assay: Superoxide dismutase administered to subjects with cellulite; subcutaneous fat measured after 90 days
Format: in vivo, human
From the text: Similarly, there was a 23% reduction in subcutaneous fat compared with the placebo after 90 days at the femoral fold.

superoxide dismutase
reduction in subcutaneous fat compared with the placebo at the femoral fold (after 90 days, femoral fold, vs placebo): 23%
reduction in subcutaneous fat compared with the placebo at the gluteal fold (after 90 days, gluteal fold, vs placebo): 28%
subcutaneous fat at the femoral fold (FIG. 1, right-hand chart) (clinical trials, femoral fold, result in words): significantly reduces
subcutaneous fat at the gluteal fold (FIG. 1, left-hand chart) (clinical trials, gluteal fold, result in words): significantly reduces
